Values after ≈ are worked out from the molar mass of the structure shown. Read-outs that look alike come from different tables or passages of the source. Positions of bridges follow the written chain, without caps; N, C: chain ends. Non-standard residues stand in square brackets, D forms with d. Residues, ends and D or L forms follow the SMILES beside them. Lys(N3) = [N-]=[N+]=NCCCC[C@H](N)C(=O)O; R8 = C=CCCCCCC[C@@](C)(N)C(=O)O; Cba = N[C@@H](CC1CCC1)C(=O)O; S5 = C=CCCC[C@](C)(N)C(=O)O; βAla = NCCC(=O)O
Columns and labels:
[1] = system: cells transiently transfected with the NanoLuc-HaloTag vector; test: Nanoclick permeability assay; conditions: 4Hr
Method in brief: (§1)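 Azido-peptide permeability was read as loss of NanoBRET signal (donor 450 nm, acceptor 610 nm) after adding NanoBret618-azide at 10 μM final.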

[2] = system: HCT116 cells; test: Lactate dehydrogenase (LDH) release assay; assay type: cell-based
Method in brief: (§2)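 A p53 β-lactamase reporter HCT116 line, 8000 cells per well, is exposed to test compounds at 0.5% final DMSO and scored for LDH leakage.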

[3] = Solubility assay (kinetic solubility, PBS pH 7); assay type: physicochemical; conditions: read-out: Solubility
Method in brief: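 Next, measure peak areas of sample and standard. Finally, multiply their ratio by the standard concentration to obtain solubility (µM).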

[4] = system: Jump-In T-REx CHO-K1 BLA cells; test: cells; assay type: cell-based; conditions: for EC50: read-out: TETCHO: Counterscreen EC50
[5] = system: p53 responsive β-lactamase reporter in HCT116 cells; test: cells; assay type: cell-based
Method in brief: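 Read-out used the ToxBLAzer Dual Screen for β-lactamase driven by a stably integrated p53-responsive reporter. Assay: 8000 HCT116 cells per well at 0.5% final DMSO. Reported numbers are geometric means over a minimum of three biological replicates.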

[6] = system: Ca Ski cell line; conditions: Ca Ski
Method in brief: (§3)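 Compound dilution series (10 points, 3-fold, 10 mM top stock in DMSO) tested on overnight-plated Ca Ski cells in RPMI1640/10% FBS and on blasticidin-selected p53RE-bla HCT-116 cells in McCoy's 5A; read-out was CellTiter-Glo 2.0 luminescence after room-temperature equilibration.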

[7] = system: CellSensor p53RE-bla HCT-116 Cell Line; conditions: read-out: Proliferation EC50 HCT116 (On-target); HCT116
Method in brief: as §3

[8] = EPSA; assay type: physicochemical
[9] = physchem
[10] = in vitro
Method in brief: as §1

[11] = Lactate dehydrogenase (LDH) release assay; assay type: cell-based
Method in brief: as §2

[12] = Experimental LogD (partition coefficient); conditions: not stated, Partition Coeff LogD
[13] = 0% FBS 4Hr, read-out: p53 reporter assay: EC50
[14] = pH 7, aqueous buffer, kinetic from dmso stock, pH 7, PBS

CC(=O)N[C@@H](CCCCN=[N+]=[N-])C(=O)NCCC(=O)N[C@@H](CC(C)C)C(=O)N[C@H](C(=O)N[C@@H](Cc1ccccc1)C(=O)N[C@]1(C)CCCCCCC=CCCC[C@@](C)(C(=O)N[C@@H](CCC(=O)O)C(=O)N[C@@H](C)C(=O)N[C@@H](C)C(=O)N[C@@H](C)C(=O)N[C@@H](C)C(=O)N[C@H](C)C(N)=O)NC(=O)[C@H](CC2CCC2)NC(=O)[C@H](CCC(N)=O)NC(=O)[C@H](C)NC(=O)[C@H](Cc2c[nH]c3ccccc23)NC(=O)[C@H](Cc2ccc(O)cc2)NC(=O)[C@H](CCC(=O)O)NC1=O)[C@@H](C)O [MP-834, Ac-K(N3)-(betaAla)-LTF-(R8)-EYWAQ-(Cba)-(S5)-EAAAA-(D-Ala)-NH2] (Ac-[Lys(N3)][βAla]LTF[R8]EYWAQ[Cba][S5]EAAAA[dA]-NH2; staple 6-13)
Nanoclick permeability assay % Effect [1]: 121.4%
LDH: Cytotoxicity assay % Effect ([2]; 0% FBS 4Hr): 6.58%
LDH: Cytotoxicity assay % Effect ([2]; 10% FBS 16Hr): 9.756%
solubility kinetic [3]: 167 µM (≈ 372 µg/mL)
TETCHO: Counterscreen % Effect ([4]; 0% FBS 4Hr): -4.911%
TETCHO: Counterscreen % Effect ([4]; 0% FBS 16Hr): -7.249%
TETCHO: Counterscreen % Effect ([4]; 10% FBS 16Hr): -13.19%
p53 reporter assay % Effect ([5]; 0% FBS 4Hr): 103.2%
p53 reporter assay % Effect ([5]; 10% FBS 16Hr): 95.7%
EC50 ([5]; read-out: Cell EC50 (4 hr, 0% FBS), p53 reporter assay, 4 hr, 0% FBS): 1 µM
EC50 ([5]; read-out: Cell EC50 (16 hr, 10% FBS), p53 reporter assay, 16 hr, 10% FBS): 3.4 µM
Proliferation % inhibition at 50 µM Ca Ski ([6]; 50 µM): -3.2%
EC50 ([6]; read-out: Proliferation EC50 Ca Ski (Off-target)): > 49.8 µM
EC50 [7]: 1.4 µM

CC(=O)N[C@@H](CCCCN)C(=O)NCCCCCC(=O)N[C@H](C(=O)N[C@@H](CO)C(=O)N[C@@H](Cc1ccccc1)C(=O)N[C@]1(C)CCCCCCC=CCCC[C@@](C)(C(=O)N[C@@H](CCC(=O)O)C(=O)N[C@@H](CC(N)=O)C(=O)N[C@@H](Cc2ccccc2)C(N)=O)NC(=O)[C@H](CC(C)C)NC(=O)[C@H](CC(C)C)NC(=O)[C@H](C)NC(=O)[C@H](Cc2c[nH]c3ccccc23)NC(=O)[C@H](Cc2ccc(O)cc2)NC(=O)[C@H](CCC(=O)O)NC1=O)[C@@H](C)O [MP-82094]
Nanoclick permeability assay % Effect [1]: 69.87%
EC50 [2]: 50.5 µM
EPSA [8]: Poorly Behaved
TETCHO: Counterscreen % Effect ([4]; 0% FBS 4Hr): 52.98%
EC50 ([4]; 0% FBS 4Hr): 45.8 µM
TETCHO: Counterscreen % Effect ([4]; 10% FBS 4Hr): 49.08%
EC50 ([4]; 10% FBS 4Hr): 20 µM
TETCHO: Counterscreen % Effect ([4]; 10% FBS 16Hr): 82.5%
EC50 ([4]; 10% FBS 16Hr): 7.15 µM
p53 reporter assay: % Effect ([5]; 0% FBS 4Hr): 109.5%
EC50 [5, 13]: 1.55 µM
p53 reporter assay: % Effect ([5]; 10% FBS 4Hr): 125.5%
EC50 ([5]; 10% FBS 4Hr, read-out: p53 reporter assay: EC50): 3.92 µM
p53 reporter assay: % Effect ([5]; 10% FBS 16Hr): 78.69%
EC50 ([5]; 10% FBS 16Hr, read-out: p53 reporter assay: EC50): 16.1 µM

CC(=O)N[C@@H](CCCCN=[N+]=[N-])C(=O)NCCC(=O)N[C@@H](CC(C)C)C(=O)N[C@H](C(=O)N[C@@H](CO)C(=O)N[C@]1(C)CCCCCCC=CCCC[C@@](C)(C(=O)N[C@@H](CO)C(=O)N[C@@H](C)C(=O)N[C@@H](C)C(N)=O)NC(=O)[C@H](CO)NC(=O)[C@H](CCC(N)=O)NC(=O)[C@H](C)NC(=O)[C@H](CO)NC(=O)[C@H](Cc2ccc(O)cc2)NC(=O)[C@H](CCC(=O)O)NC1=O)[C@@H](C)O [MP-3352] (Ac-[Lys(N3)][βAla]LTS[R8]EYSAQS[S5]SAA-NH2; staple 6-13)
EPSA [9]: 197 A^2
cell entry EC50 ([10]; Nanoclick permeability assay EC50): 8.79 µM
Nanoclick permeability assay % Effect [1]: 36.66%
EC50 ([11]; LDH: Cytotoxicity assay: EC50): > 50.6 µM
LDH: Cytotoxicity assay: % Effect [2]: -2.39%
solubility kinetic [3, 14]: 28 µM (≈ 49.6 µg/mL)
TETCHO: Counterscreen % Effect ([4]; 0% FBS 4Hr): 0.41%
EC50 ([4]; 0% FBS 4Hr): > 50.6 µM
EC50 [5, 13]: > 50.6 µM
logD [12]: 1.55

CC(=O)N[C@@H](CCCCN=[N+]=[N-])C(=O)NCCC(=O)N[C@@H](CC(C)C)C(=O)N[C@H](C(=O)N[C@@H](Cc1ccccc1)C(=O)N[C@]1(C)CCCCCCC=CCCC[C@@](C)(C(=O)N[C@@H](C)C(=O)N[C@@H](CC(N)=O)C(=O)N[C@@H](C)C(=O)N[C@@H](C)C(=O)N[C@@H](C)C(=O)N[C@H](C)C(N)=O)NC(=O)[C@H](CC2CCC2)NC(=O)[C@H](CCC(N)=O)NC(=O)[C@H](C)NC(=O)[C@H](Cc2c[nH]c3ccccc23)NC(=O)[C@H](Cc2ccc(O)cc2)NC(=O)[C@H](CCC(=O)O)NC1=O)[C@@H](C)O [MP-967, AZIDE-KK-ATSP-7041 (L1A,T2A,E5A,Q9A,S12A)] (Ac-[Lys(N3)][βAla]LTF[R8]EYWAQ[Cba][S5]ANAAA[dA]-NH2; staple 6-13)
cell entry EC50 [10]: 3.89 µM
Nanoclick permeability assay % Effect [1]: 137.2%
EC50 ([11]; 0% FBS 4Hr, read-out: LDH: Cytotoxicity assay EC50): > 50.7 µM
EC50 ([11]; 10% FBS 16Hr, read-out: LDH: Cytotoxicity assay EC50): > 50.7 µM
LDH: Cytotoxicity assay % Effect ([2]; 0% FBS 4Hr): 5.243%
LDH: Cytotoxicity assay % Effect ([2]; 10% FBS 16Hr): 11.93%
solubility kinetic [3, 14]: 161 µM (≈ 356 µg/mL)
TETCHO: Counterscreen % Effect ([4]; 0% FBS 4Hr): -0.6324%
EC50 ([4]; 0% FBS 4Hr): > 50.4 µM
TETCHO: Counterscreen % Effect ([4]; 10% FBS 16Hr): -28.5%
EC50 ([4]; 10% FBS 16Hr): > 50.4 µM
p53 reporter assay % Effect ([5]; 0% FBS 4Hr): 98.42%
EC50 ([5]; 0% FBS 4Hr, read-out: p53 reporter assay EC50): 0.524 µM
p53 reporter assay % Effect ([5]; 10% FBS 16Hr): 97.47%
EC50 ([5]; 10% FBS 16Hr, read-out: p53 reporter assay EC50): 0.937 µM
logD [12]: 3.08
